{
  "source": "patent US11370743B2",
  "about": "“Prodrug derivatives of protein kinase C modulators” (priority 2017, dated 2022)",
  "key": {"C57/bl6 mice": {"system": "C57/bl6 mice", "assay": "In vivo C57/bl6 Mouse CD69 Stimulation Assay", "settings": "for CD69 expression versus parent compound: 60 μg dose; for stimulation of CD69 in splenocytes: 24 h post-injection; for bolus toxicity: highest dosage", "description": "In vivo C57/bl6 Mouse CD69 Stimulation Assay: C57/bl6 mice were obtained from the UCLA Department of Radiation Oncology. Prodrugs of the disclosure were administered intravenously via retro-orbital injection. At 24 h post-injection, mice were sacrificed and the spleens isolated. Spleens were disaggregated by forcing tissue through a steel mesh and then filtered through a 40 μm filter to produce a single-cell suspension. These cells were then stained for flow cytometry to analyze surface expression of relevant markers. Cells were first suspended in 50 μL of a 1:1 mix of 1× PBS and human AB serum (Sigma) and then stained with a combination of anti-mouse CD3-fluorescein isothiocyanate (eBioscience), CD69-phycoerythrin (eBioscience), and CD4-peridinin chlorophyll protein (eBioscience). Following antibody addition, the mixture was incubated at 4° C. for 15 min. The cells were then washed, resuspended in 1× PBS containing 2% paraformaldehyde, and stored at 4° C. Fixed cells were analyzed using an LSRFortessa (BD Biosciences). The resultant list mode files were processed using FlowJo software (version 7.6)."}, "porcine liver esterase": {"system": "porcine liver esterase", "assay": "Porcine Liver Esterase Assay", "type": "in vitro ADME", "settings": "pig; 60 units of porcine liver esterase, HEPES buffered saline, pH 7.4, 10% DMSO, 37° C.; read-out: Esterase stability (t1/2)* (converted)", "description": "(§1) Hydrolytic Stability Assay: A solution of 400 μM of parent compound or prodrug derivative with 2,4,6-trimethylphenol (800 μM, 107 μg) in HEPES buffered saline, pH 7.4, with 10% DMSO (total volume 1000 μL) was incubated at 37° C. At appropriate time points, 100 μL was removed, flash frozen, and lyophilized. The lyophilized material was then diluted with 100 μL acetonitrile, filtered, and analyzed by analytical HPLC. The degree of degradation was calculated relative to the area under the curve of the compound of interest compared to the internal standard, 2,4,6-trimethylphenol, as shown in Table 1. Porcine Liver Esterase Assay: A solution of 400 μM of parent compound or prodrug derivative with 2,4,6-trimethylphenol (800 μM, 160 μg) and 60 units of porcine liver esterase in HEPES buffered saline, pH 7.4, with 10% DMSO (total volume 1500 μL) was incubated at 37° C. At appropriate time points, 150 μL was removed, flash frozen, and centrifuged at 10,000 rpm. 140 μL of the supernatant was removed and lyophilized. The lyophilized material was then diluted with 100 μL acetonitrile, filtered, and analyzed by analytical HPLC. The degree of esterase cleavage was calculated relative to the area under the curve of the compound of interest compared to the internal standard, 2,4,6-trimethylphenol."}, "[1]": {"assay": "Hydrolytic Stability Assay", "type": "physicochemical", "settings": "buffer, HEPES buffered saline, pH 7.4, 10% DMSO, 37° C.; for half-life at 400 μM: read-out: Hydrolytic stability (t1/2); for half-life: read-out: Hydrolytic stability (t1/2) (converted)", "description": "as §1"}, "Novel PKCδ": {"molecular_target": "T1, Novel PKCδ (Homo sapiens, UniProt Q05655)", "T1 construct": "a specific full-length PKC isoform was combined with Tris-HCl, KCl, CaCl2", "T1 sequence (Q05655 whole entry, canonical isoform)": "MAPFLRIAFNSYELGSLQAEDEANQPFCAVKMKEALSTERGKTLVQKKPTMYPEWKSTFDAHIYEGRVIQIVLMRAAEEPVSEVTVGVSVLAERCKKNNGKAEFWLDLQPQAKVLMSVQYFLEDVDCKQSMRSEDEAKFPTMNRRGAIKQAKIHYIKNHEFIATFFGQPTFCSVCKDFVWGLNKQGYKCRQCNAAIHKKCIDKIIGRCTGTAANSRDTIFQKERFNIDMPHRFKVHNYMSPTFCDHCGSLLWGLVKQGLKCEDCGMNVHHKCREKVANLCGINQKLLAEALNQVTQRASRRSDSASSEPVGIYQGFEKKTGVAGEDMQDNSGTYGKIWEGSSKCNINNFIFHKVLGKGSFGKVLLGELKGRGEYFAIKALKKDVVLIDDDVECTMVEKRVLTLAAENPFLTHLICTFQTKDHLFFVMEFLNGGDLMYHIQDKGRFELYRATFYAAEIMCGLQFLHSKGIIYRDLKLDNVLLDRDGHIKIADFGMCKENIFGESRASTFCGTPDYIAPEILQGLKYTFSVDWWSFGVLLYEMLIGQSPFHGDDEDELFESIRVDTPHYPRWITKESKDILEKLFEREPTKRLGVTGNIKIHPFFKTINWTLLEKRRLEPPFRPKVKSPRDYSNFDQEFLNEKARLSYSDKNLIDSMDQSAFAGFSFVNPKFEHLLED", "assay": "PKC binding affinity, competitive radioligand assay against 3H-PDBu", "description": "(§2) Testing of Compounds for PKC Binding Affinity: A heterogeneous competitive radioligand assay against ^3H-phorbol-12,13-dibutyrate (^3H-PDBu) was used to generate PKC binding constant (Ki) values. In a typical assay, a specific full-length PKC isoform was combined with Tris-HCl, KCl, CaCl2, bovine serum albumin, water, and phosphatidyl serine. Serial dilutions of the respective analog were added to the PKC mixture; in addition, a solution of a compound with known PKC binding affinity and a solution containing no sample were added for reference.\n(§3) After addition of [^3H]PDBu, these samples were incubated, filtered through filters previously wetted with polyethyleneimine and the filters were washed with Tris buffer. The filters were then placed into scintillation vials which were then filled with Bio-Safe scintillation fluid and were measured for radioactivity using a Beckman LS 6000SC scintillation counter. Counts per minute (cpm) were averaged for each triplicate dilution. The data was then plotted (cpm vs. log(concentration)) using Prism® by GraphPad Software and an IC50 was determined using that program's built-in one-site competition least squares regression function. Ki values were calculated by the equation: Ki=IC50/(1+[^3H-PDBu])/KD of ^3H-PDBu)."}, "Conventional PKCβI": {"molecular_target": "T2, Conventional PKCβI (Homo sapiens, UniProt P05771)", "T2 construct": "a specific full-length PKC isoform was combined with Tris-HCl, KCl, CaCl2", "T2 sequence (P05771 whole entry, canonical isoform)": "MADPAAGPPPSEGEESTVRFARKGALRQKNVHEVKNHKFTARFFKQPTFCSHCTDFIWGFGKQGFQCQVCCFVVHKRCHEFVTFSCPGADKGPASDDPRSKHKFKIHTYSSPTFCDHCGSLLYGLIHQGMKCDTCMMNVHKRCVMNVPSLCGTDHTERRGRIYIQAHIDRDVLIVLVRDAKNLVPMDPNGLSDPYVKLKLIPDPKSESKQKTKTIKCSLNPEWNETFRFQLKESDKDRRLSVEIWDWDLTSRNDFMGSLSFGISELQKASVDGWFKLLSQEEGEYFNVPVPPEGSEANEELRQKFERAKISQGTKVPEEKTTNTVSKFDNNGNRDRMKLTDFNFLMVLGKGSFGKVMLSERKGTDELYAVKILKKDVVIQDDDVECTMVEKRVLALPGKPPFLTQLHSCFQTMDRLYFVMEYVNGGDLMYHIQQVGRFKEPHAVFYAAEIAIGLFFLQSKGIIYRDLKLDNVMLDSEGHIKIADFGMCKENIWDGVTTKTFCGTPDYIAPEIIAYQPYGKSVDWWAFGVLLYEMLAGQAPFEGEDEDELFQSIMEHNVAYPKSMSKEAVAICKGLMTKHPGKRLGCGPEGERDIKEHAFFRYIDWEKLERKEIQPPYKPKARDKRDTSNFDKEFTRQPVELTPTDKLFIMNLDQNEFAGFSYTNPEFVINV", "assay": "PKC binding affinity, competitive radioligand assay against 3H-PDBu", "description": "as §2, §3"}, "[2]": {"system": "T-lymphoblastoid CEM-SS and C-8166 cells", "settings": "CEM-SS and C-8166 cell lines; cited from earlier work"}, "PKC": {"molecular_target": "T3, PKC", "T3 construct": "rows headed: KD of 3H-PDBu", "assay": "Saturation binding of 3H-PDBu", "settings": "batch-to-batch variability"}, "[3]": {"settings": "intravenous retro-orbital injection"}, "[4]": {"settings": "vs 3H-PDBu, read-out: PKC binding affinity, Ki, Novel PKCδ"}},
  "note": "Read-outs that look alike come from different tables or passages of the source.",
  "data": [
    {"compound": "CC1=C[C@H]2[C@@]3(O)[C@H](C)C[C@]4(OC(=O)CC56CC7CC(CC(C7)C5)C6)[C@H]([C@@H]3C=C(CO)C[C@]2(O)C1=O)C4(C)C", "note": "[Compound 3, adamantyl prostratin]", "values": [
      {"measurement": "survival of mice", "setting": "C57/bl6 mice; [3]", "result": "one mouse casualty at 60 pg and no survival beyond that dose"},
      {"measurement": "potency compared with prostratin", "setting": "C57/bl6 mice; intravenous retro-orbital injection, 24 h", "result": "higher potency than prostratin"}
    ]},
    {"compound": "CC(=O)OCC1=C[C@H]2[C@@H]3C(C)(C)[C@]3(OC(=O)CC34CC5CC(CC(C5)C3)C4)C[C@@H](C)[C@]2(O)[C@@H]2C=C(C)C(=O)[C@@]2(O)C1", "note": "[Compound 4a]", "values": [
      {"measurement": "half-life at 400 μM", "setting": "porcine liver esterase", "result": "27 ± 3", "unit": "h"},
      {"measurement": "half-life at 400 μM", "setting": "[1]", "result": "> 168", "unit": "h"},
      {"measurement": "Ki", "setting": "Novel PKCδ", "result": 9400, "unit": "nM"},
      {"measurement": "CD69 expression versus parent compound", "setting": "C57/bl6 mice", "result": "more moderate levels of activation"},
      {"measurement": "stimulation of CD69 in splenocytes", "setting": "C57/bl6 mice", "result": "strong stimulation of CD69 in splenocytes"},
      {"measurement": "bolus toxicity", "setting": "C57/bl6 mice", "result": "no bolus toxicity on mice even at the highest dosage"},
      {"measurement": "survival of mice", "setting": "C57/bl6 mice; [3]", "result": "survived"}
    ]},
    {"compound": "CCCCCC(=O)OCC1=C[C@H]2[C@@H]3C(C)(C)[C@]3(OC(=O)CC34CC5CC(CC(C5)C3)C4)C[C@@H](C)[C@]2(O)[C@@H]2C=C(C)C(=O)[C@@]2(O)C1", "note": "[Compound 4b]", "values": [
      {"measurement": "half-life at 400 μM", "setting": "porcine liver esterase", "result": "2.4 ± 0.5", "unit": "h"},
      {"measurement": "half-life at 400 μM", "setting": "[1]", "result": "> 1780", "unit": "h"},
      {"measurement": "Ki", "setting": "Novel PKCδ", "result": "> 2500", "unit": "nM"},
      {"measurement": "Ki", "setting": "Conventional PKCβI", "result": "> 2500", "unit": "nM"}
    ]},
    {"compound": "CCCCCCCCCC(=O)OCC1=C[C@H]2[C@@H]3C(C)(C)[C@]3(OC(=O)CC34CC5CC(CC(C5)C3)C4)C[C@@H](C)[C@]2(O)[C@@H]2C=C(C)C(=O)[C@@]2(O)C1", "note": "[Compound 4c]", "values": [
      {"measurement": "half-life at 400 μM", "setting": "porcine liver esterase", "result": "19 ± 2", "unit": "h"},
      {"measurement": "half-life at 400 μM", "setting": "[1]", "result": "> 168", "unit": "h"},
      {"measurement": "Ki", "setting": "Novel PKCδ", "result": 9000, "unit": "nM"},
      {"measurement": "CD69 expression versus parent compound", "setting": "C57/bl6 mice", "result": "comparable"},
      {"measurement": "stimulation of CD69 in splenocytes", "setting": "C57/bl6 mice", "result": "strong stimulation of CD69 in splenocytes"},
      {"measurement": "bolus toxicity", "setting": "C57/bl6 mice", "result": "no bolus toxicity on mice even at the highest dosage"},
      {"measurement": "survival of mice", "setting": "C57/bl6 mice; [3]", "result": "survived"}
    ]},
    {"compound": "CC1=C[C@H]2[C@@]3(O)[C@H](C)C[C@]4(OC(=O)CC56CC7CC(CC(C7)C5)C6)[C@H]([C@@H]3C=C(COC(=O)c3ccccc3)C[C@]2(O)C1=O)C4(C)C", "note": "[Compound 4d]", "values": [
      {"measurement": "half-life at 400 μM", "setting": "porcine liver esterase", "result": "32 ± 9", "unit": "h"},
      {"measurement": "half-life at 400 μM", "setting": "[1]", "result": "> 168", "unit": "h"},
      {"measurement": "Ki", "setting": "Novel PKCδ", "result": "> 2500", "unit": "nM"},
      {"measurement": "Ki", "setting": "Conventional PKCβI", "result": "> 500", "unit": "nM"}
    ]},
    {"compound": "CCOC(=O)OCC1=C[C@H]2[C@@H]3C(C)(C)[C@]3(OC(=O)CC34CC5CC(CC(C5)C3)C4)C[C@@H](C)[C@]2(O)[C@@H]2C=C(C)C(=O)[C@@]2(O)C1", "note": "[Compound 4e]", "values": [
      {"measurement": "half-life at 400 μM", "setting": "porcine liver esterase", "result": "4.8 ± 0.6", "unit": "h"},
      {"measurement": "half-life at 400 μM", "setting": "[1]", "result": "> 168", "unit": "h"},
      {"measurement": "Ki", "setting": "Novel PKCδ", "result": 380, "unit": "nM"}
    ]},
    {"compound": "CCCCCCCCNC(=O)OCC1=C[C@H]2[C@@H]3C(C)(C)[C@]3(OC(=O)CC34CC5CC(CC(C5)C3)C4)C[C@@H](C)[C@]2(O)[C@@H]2C=C(C)C(=O)[C@@]2(O)C1", "note": "[Compound 4f]", "values": [
      {"measurement": "half-life at 400 μM", "setting": "porcine liver esterase", "result": "71 ± 13", "unit": "h"},
      {"measurement": "half-life at 400 μM", "setting": "[1]", "result": "> 168", "unit": "h"},
      {"measurement": "Ki", "setting": "Novel PKCδ", "result": 2900, "unit": "nM"}
    ]},
    {"compound": "CC1=C[C@]23C(=O)[C@@H](C=C(CO)[C@@H](O)[C@]2(O)[C@H]1OC(=O)c1ccc(Br)cc1C)[C@H]1[C@@H](C[C@H]3C)C1(C)C", "note": "[Compound 6, o-methyl-p-bromo-benzoate ingenol ester]", "values": [
      {"measurement": "half-life", "setting": "porcine liver esterase", "result": 1, "unit": "h"},
      {"measurement": "half-life", "setting": "[1]", "result": 18, "unit": "h"},
      {"measurement": "Ki", "setting": "Novel PKCδ; [4]", "result": 1.1, "unit": "nM"},
      {"measurement": "Ki", "setting": "Conventional PKCβI; vs 3H-PDBu, read-out: PKC binding affinity, Ki, Conventional PKCβI", "result": 0.85, "unit": "nM"}
    ]},
    {"compound": "CCCCCCCCCC(=O)OCC1=C[C@@H]2C(=O)[C@]3(C=C(C)[C@H](OC(=O)c4ccc(Br)cc4C)[C@@]3(O)[C@@H]1O)[C@H](C)C[C@@H]1[C@H]2C1(C)C", "note": "[Compound 7]", "values": [
      {"measurement": "half-life", "setting": "porcine liver esterase", "result": 2, "unit": "h"},
      {"measurement": "half-life", "setting": "[1]", "result": 2, "unit": "h"},
      {"measurement": "Ki", "setting": "Novel PKCδ; [4]", "result": 11000, "unit": "nM"}
    ]},
    {"compound": "CC(=O)O[C@@]12C[C@@H](C)[C@@]3(O)[C@@H](C=C(CO)C[C@]4(O)C(=O)C(C)=C[C@@H]34)[C@@H]1C2(C)C", "note": "[prostratin]", "values": [
      {"measurement": "concentration restoring cell viability to the level of uninfected controls", "setting": "[2]", "result": "approximately 1 μM"},
      {"measurement": "no sign of cytotoxicity up to", "setting": "[2]", "result": "about 25 μM"}
    ]},
    {"compound": "^3H-phorbol-12,13-dibutyrate [^3H-PDBu]", "values": [
      {"measurement": "Kd", "setting": "PKC", "result": "1.55 to 4.4", "unit": "nM"}
    ]}
  ]
}
